In patent US11459309B2, “Crystalline forms of a lysyl oxidase-like 2 inhibitor and methods of making” (PHARMAKEA, INC., priority 2016, dated 2022):

Tests used:
[1] = Method: After each addition of solvent, the system was shaken gently for 10 minutes at 50° C. and then allowed to stand at room temperature for 5 min before the addition of a new aliquot of solvent. After the assessment was completed, any suspensions obtained were matured and clear solutions were cooled at 5° C.
[2] = Storage of solid forms at 40° C./75% RH or 25° C./97% RH; assay type: physicochemical; conditions: for 7 days storage @ 40° C./75% RH: appearance: table prints 40° C./5% RH, hydrochloride salt
[3] = Stability studies (accelerated, ICH); assay type: physicochemical
Method: The compounds were assayed according to appearance, purity, related Substances, chiral purity, moisture, DSC, and XRPD

[4] = Solubility and metastable limit curves (clear point / cloud point, Crystal16); assay type: physicochemical
Method: The samples were then cooled from 70 back to −8° C. at the same rate. The clear point upon heating (at 100% transmission) and the cloud point upon re-cooling (<100% transmission) were recorded using the Crystal16 instrument and the data is shown in Table 17. XRPD analysis was performed on all solids obtained post cooling.

Forced degradation study = assay type: physicochemical
[5] = Storage of solid forms at 40° C./75% RH or 25° C./97% RH; assay type: physicochemical; conditions: for 7 days storage @ 40° C./75% RH: resulting form (XRPD): 7 days / one week, hydrochloride salt
Method: All retrieved solids from the crystallisation attempts were stored at 40° C. and 75% RH.

[6] = Organic (qualitative) solubility of Form 1 of Compound 2; assay type: physicochemical
[7] = Gravimetric Vapor Sorption (GVS); assay type: physicochemical; conditions: 0 to 90% RH; methanesulfonate salt
Excerpt: Gravimetric Vapor Sorption (GVS) isotherms were obtained using an SMS DVS Intrinsic moisture sorption analyser, controlled by DVS Intrinsic Control software v1.0.1.2 (or v 1.0.1.3), over a range of 0 to 90% relative humidity (RH).

[8] = Aqueous solubility of Form 1 of Compound 2; assay type: physicochemical
[9] = Form conversion on heating (thermal analysis / XRPD); assay type: physicochemical; conditions: heated above 150° C.
Method: DSC data were collected on a TA Instruments Q2000 equipped with a 50 position auto-sampler. The calibration for thermal capacity was carried out using sapphire and the calibration for energy and temperature was carried out using certified indium. Typically 0.5-3 mg of each sample, in a pin-holed aluminium pan, was heated at 10° C./min from 25° C. to 300° C. A purge of dry nitrogen at 50 ml/min was maintained over the sample.

Cl.NCc1cc(Oc2cccc(C(=O)N3C[C@@H](O)[C@H](F)C3)c2)nc(C(F)(F)F)c1 [Amorphous Compound 1, (R,R)-trans-(3-((4-(aminomethyl)-6-(trifluoromethyl)pyridin-2-yl)oxy)phenyl)(3-fluoro-4-hydroxypyrrolidin-1-yl)methanone, hydrochloride salt]
Solubility [1]: 200-100 | 7 days storage @ 40° C./75% RH: appearance [2]: Glassy

Cl.NCc1cc(Oc2cccc(C(=O)N3C[C@@H](O)[C@H](F)C3)c2)nc(C(F)(F)F)c1 [Compound 1, (R,R)-trans-(3-((4-(aminomethyl)-6-(trifluoromethyl)pyridin-2-yl)oxy)phenyl)(3-fluoro-4-hydroxypyrrolidin-1-yl)methanone, hydrochloride salt]
3 month accelerated stability ([3]; 40° C./75% RH, 3 month): no significant changes in purity or absorption of moisture

CS(=O)(=O)O.NCc1cc(Oc2cccc(C(=O)N3C[C@@H](O)[C@H](F)C3)c2)nc(C(F)(F)F)c1 [Compound 2, (R,R)-trans-(3-((4-(aminomethyl)-6-(trifluoromethyl)pyridin-2-yl)oxy)phenyl)(3-fluoro-4-hydroxypyrrolidin-1-yl)methanone, methanesulfonate salt]
Clear Point Temperature ([4]; 5 mg in 1 mL IPA:water 95:5): 6.9 °C | Clear Point Temperature ([4]; 10 mg in 1 mL IPA:water 95:5): 20.3 °C | Clear Point Temperature ([4]; 20 mg in 1 mL IPA:water 95:5): 37.2 °C | Clear Point Temperature ([4]; 30 mg in 1 mL IPA:water 95:5): 48.5 °C | Cloud Point Temperature ([4]; 30 mg in 1 mL IPA:water 95:5): −7.8 °C | Clear Point Temperature ([4]; 40 mg in 1 mL IPA:water 95:5): 55.8 °C | Cloud Point Temperature ([4]; 40 mg in 1 mL IPA:water 95:5): −1.8 °C | Clear Point Temperature ([4]; 60 mg in 1 mL IPA:water 95:5): 64 °C | Cloud Point Temperature ([4]; 60 mg in 1 mL IPA:water 95:5): 14.5 °C | Clear Point Temperature ([4]; 70 mg in 1 mL IPA:water 95:5): 68.6 °C | Cloud Point Temperature ([4]; 70 mg in 1 mL IPA:water 95:5): 24.7 °C | forced degradation, solid state, heat (Forced degradation study; solid, 100° C., 24 hours): stable | forced degradation, solid state, light (Forced degradation study; solid, max 365 nm, 24 hours): stable | forced degradation, solution state, heat (Forced degradation study; solution, 50° C. for 24 hours): stable | ICH stability, 1 month data ([3]; long-term (25° C./60%) and accelerated (40° C./75%) conditions of 1-year and 2-year ICH studies): within limits for all attributes tested

Cl.NCc1cc(Oc2cccc(C(=O)N3C[C@@H](O)[C@H](F)C3)c2)nc(C(F)(F)F)c1 [Form 1 of Compound 1, (R,R)-trans-(3-((4-(aminomethyl)-6-(trifluoromethyl)pyridin-2-yl)oxy)phenyl)(3-fluoro-4-hydroxypyrrolidin-1-yl)methanone, hydrochloride salt]
7 days storage @ 40° C./75% RH: appearance [2]: Waxy/glassy | hygroscopicity [5]: hygroscopic solid | 7 days storage @ 40° C./75% RH: resulting form (XRPD) [5]: transforms to Form 2 | behaviour on storage at 40° C. and 75% RH ([5]; after 24 hours): deliquescing

CS(=O)(=O)O.NCc1cc(Oc2cccc(C(=O)N3C[C@@H](O)[C@H](F)C3)c2)nc(C(F)(F)F)c1 [Form 1 of Compound 2, (R,R)-trans-(3-((4-(aminomethyl)-6-(trifluoromethyl)pyridin-2-yl)oxy)phenyl)(3-fluoro-4-hydroxypyrrolidin-1-yl)methanone, methanesulfonate salt]
Organic Solubility: Qualitative Solubility ([6]; isopropyl acetate, isopropanol, methyl-ethyl ketone, acetone, ethanol, methyl-t-butyl ether, 1,4 dioxane, toluene, tetrahydrofuran, dichloromethane, acetonitrile): ≤10 mg/mL | Organic Solubility: Qualitative Solubility ([6]; water, dimethyl sulfoxide): >200 mg/mL | XRPD after the GVS analysis [7]: Unchanged | Polymorph stability on storage ([5]; 7 days at 40° C./75% RH and 25° C./97% RH): stable for 7 days | Aqueous Solubility ([8]; pH 2): >107 mg/mL | Aqueous Solubility ([8]; pH 7.4): >107 mg/mL | Aqueous Solubility ([8]; pH 10): >85 mg/mL

Cl.NCc1cc(Oc2cccc(C(=O)N3C[C@@H](O)[C@H](F)C3)c2)nc(C(F)(F)F)c1 [Form 2 of Compound 1, (R,R)-trans-(3-((4-(aminomethyl)-6-(trifluoromethyl)pyridin-2-yl)oxy)phenyl)(3-fluoro-4-hydroxypyrrolidin-1-yl)methanone, hydrochloride salt]
7 days storage @ 40° C./75% RH: appearance [2]: Waxy/glassy | behaviour on storage conditions ([5]; 1 week, 40° C. and 75% RH): remained unchanged | 7 days storage @ 40° C./75% RH: resulting form (XRPD) [5]: Form 2 | stability over time ([5]; thermally stable, over time): converts over time to a waxy solid

CS(=O)(=O)O.NCc1cc(Oc2cccc(C(=O)N3C[C@@H](O)[C@H](F)C3)c2)nc(C(F)(F)F)c1 [Form 2 of Compound 2, (R,R)-trans-(3-((4-(aminomethyl)-6-(trifluoromethyl)pyridin-2-yl)oxy)phenyl)(3-fluoro-4-hydroxypyrrolidin-1-yl)methanone, methanesulfonate salt]
form change on heating [9]: can transform to Form 1 | form change after storage ([2]; 7 days at 25° C./97% RH): change also occurs | form change after GVS analysis and storage ([5]; after GVS analysis and 7 days at 40° C./75% RH): phase transformation towards Form 1 | form change in humidity ([5]; humidity): converts to Form 1
